How the values were obtained:
Experiment in all cases: relative viability (nuclei count vs DMSO), 5 days (fraction); higher = more cells survive
NCI-H520 = test system: NCI-H520
Outline: (§1)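 Lung cancer cell lines were seeded in 1536-well plates and dosed by pin tool the next day, with either a single drug or a fixed anchor-drug dose combined with five library-drug doses (not always all listed) spaced in √10 steps. Five days later, one step fixed the cells and stained their nuclei (final 0.05% Triton X-100, 1% formaldehyde, 1 ug/ml Hoechst), and nuclei were counted on 4× images. Relative viability is the nuclei count in treated wells divided by the count in vehicle wells, and each value is the median of duplicate plates.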

H3255 = test system: H3255
Outline: as §1

HCC-15 = test system: HCC-15
Outline: as §1

LC-2-ad = test system: LC-2-ad
Outline: as §1

LU99A = test system: LU99A
Outline: as §1

NCI-H3122 = test system: NCI-H3122
Outline: as §1

NCI-H1734 = test system: NCI-H1734
Outline: as §1

HARA = test system: HARA
Outline: as §1

NCI-H1993 = test system: NCI-H1993
Outline: as §1

NCI-H1666 = test system: NCI-H1666
Outline: as §1

PC-3 [JPC-3] = test system: PC-3 [JPC-3]
Outline: as §1

NCI-H647 = test system: NCI-H647
Outline: as §1

HCC-366 = test system: HCC-366
Outline: as §1

SK-LU-1 = test system: SK-LU-1
Outline: as §1

NCI-H2228 = test system: NCI-H2228
Outline: as §1

NCI-H1975 = test system: NCI-H1975
Outline: as §1

NCI-H1944 = test system: NCI-H1944
Outline: as §1

NCI-H661 = test system: NCI-H661
Outline: as §1

NCI-H838 = test system: NCI-H838
Outline: as §1

CAL-12T = test system: CAL-12T
Outline: as §1

NCI-H1395 = test system: NCI-H1395
Outline: as §1

PC-14 = test system: PC-14
Outline: as §1

COR-L 105 = test system: COR-L 105
Outline: as §1

`O=c1[nH]c2ccccc2n1C1CCN(CCCC(c2ccc(F)cc2)c2ccc(F)cc2)CC1` [Pimozide] + Cc1nc(NC(=O)N2CCC[C@H]2C(N)=O)sc1-c1ccnc(C(C)(C)C(F)(F)F)c1 [Alpelisib] (partner 2 µM) gave a relative viability (NCI-H520; first compound 0.08 µM) of 1.03, a relative viability (NCI-H520; first compound 0.253 µM) of 0.88 and a relative viability (NCI-H520; first compound 0.8 µM) of 0.992. For the same compound, the relative viability (NCI-H520; first compound 2.53 µM) was 0.947, the relative viability (NCI-H520; first compound 8 µM) was 0.832 and the relative viability (H3255; first compound 0.253 µM) was 0.569. It also gave a relative viability (H3255; first compound 0.8 µM) of 0.599, a relative viability (H3255; first compound 2.53 µM) of 0.754 and a relative viability (H3255; first compound 8 µM) of 0.711. For the same compound, the relative viability (HCC-15; first compound 0.08 µM) was 0.913, the relative viability (HCC-15; first compound 0.253 µM) was 0.91 and the relative viability (HCC-15; first compound 0.8 µM) was 0.832. It also gave a relative viability (HCC-15; first compound 2.53 µM) of 0.782, a relative viability (HCC-15; first compound 8 µM) of 0.769 and a relative viability (LC-2-ad; first compound 0.08 µM) of 0.762. For the same compound, the relative viability (LC-2-ad; first compound 0.253 µM) was 0.847, the relative viability (LC-2-ad; first compound 0.8 µM) was 0.934 and the relative viability (LC-2-ad; first compound 2.53 µM) was 0.879. The relative viability (LC-2-ad; first compound 8 µM) was 0.776, the relative viability (LU99A; first compound 0.08 µM) was 0.397 and the relative viability (LU99A; first compound 0.253 µM) was 0.424. The relative viability (LU99A; first compound 0.8 µM) was 0.42, the relative viability (LU99A; first compound 2.53 µM) was 0.484 and the relative viability (LU99A; first compound 8 µM) was 0.477. It also gave a relative viability (NCI-H3122; first compound 0.08 µM) of 0.833, a relative viability (NCI-H3122; first compound 0.253 µM) of 0.784 and a relative viability (NCI-H3122; first compound 0.8 µM) of 0.784. The relative viability (NCI-H3122; first compound 2.53 µM) was 0.784, the relative viability (NCI-H3122; first compound 8 µM) was 0.795 and the relative viability (NCI-H1734; first compound 0.08 µM) was 0.675. For the same compound, the relative viability (NCI-H1734; first compound 0.253 µM) was 0.664, the relative viability (NCI-H1734; first compound 0.8 µM) was 0.68 and the relative viability (NCI-H1734; first compound 2.53 µM) was 0.744. It also gave a relative viability (NCI-H1734; first compound 8 µM) of 0.769, a relative viability (HARA; first compound 0.08 µM) of 0.718 and a relative viability (HARA; first compound 0.253 µM) of 0.829. It also gave a relative viability (HARA; first compound 0.8 µM) of 0.565, a relative viability (HARA; first compound 2.53 µM) of 0.675 and a relative viability (HARA; first compound 8 µM) of 0.728. The relative viability (NCI-H1993; first compound 0.08 µM) was 0.707, the relative viability (NCI-H1993; first compound 0.253 µM) was 0.648 and the relative viability (NCI-H1993; first compound 0.8 µM) was 0.716. The relative viability (NCI-H1993; first compound 2.53 µM) was 0.734, the relative viability (NCI-H1993; first compound 8 µM) was 0.669 and the relative viability (NCI-H1666; first compound 0.08 µM) was 0.948. The relative viability (NCI-H1666; first compound 0.253 µM) was 1.01, the relative viability (NCI-H1666; first compound 0.8 µM) was 0.886 and the relative viability (NCI-H1666; first compound 2.53 µM) was 0.874. The relative viability (NCI-H1666; first compound 8 µM) was 0.728, the relative viability (PC-3 [JPC-3]; first compound 0.253 µM) was 0.964 and the relative viability (PC-3 [JPC-3]; first compound 0.8 µM) was 0.978. For the same compound, the relative viability (PC-3 [JPC-3]; first compound 2.53 µM) was 0.961, the relative viability (PC-3 [JPC-3]; first compound 8 µM) was 0.96 and the relative viability (NCI-H647; first compound 0.08 µM) was 1.11. It also gave a relative viability (NCI-H647; first compound 0.253 µM) of 1.31, a relative viability (NCI-H647; first compound 0.8 µM) of 1.11 and a relative viability (NCI-H647; first compound 2.53 µM) of 1. For the same compound, the relative viability (NCI-H647; first compound 8 µM) was 0.554, the relative viability (HCC-366; first compound 0.08 µM) was 0.354 and the relative viability (HCC-366; first compound 0.253 µM) was 0.381. The relative viability (HCC-366; first compound 0.8 µM) was 0.406, the relative viability (HCC-366; first compound 2.53 µM) was 0.425 and the relative viability (HCC-366; first compound 8 µM) was 0.518. The relative viability (SK-LU-1; first compound 0.08 µM) was 0.961, the relative viability (SK-LU-1; first compound 0.253 µM) was 0.986 and the relative viability (SK-LU-1; first compound 0.8 µM) was 0.926. For the same compound, the relative viability (SK-LU-1; first compound 2.53 µM) was 0.719, the relative viability (SK-LU-1; first compound 8 µM) was 0.649 and the relative viability (NCI-H2228; first compound 0.08 µM) was 0.623. For the same compound, the relative viability (NCI-H2228; first compound 0.253 µM) was 0.755, the relative viability (NCI-H2228; first compound 0.8 µM) was 0.735 and the relative viability (NCI-H2228; first compound 2.53 µM) was 0.737. For the same compound, the relative viability (NCI-H2228; first compound 8 µM) was 0.482, the relative viability (NCI-H1975; first compound 0.08 µM) was 0.64 and the relative viability (NCI-H1975; first compound 0.253 µM) was 0.715. For the same compound, the relative viability (NCI-H1975; first compound 0.8 µM) was 0.606, the relative viability (NCI-H1975; first compound 2.53 µM) was 0.602 and the relative viability (NCI-H1975; first compound 8 µM) was 0.535. For the same compound, the relative viability (NCI-H1944; first compound 0.08 µM) was 0.654, the relative viability (NCI-H1944; first compound 0.253 µM) was 0.817 and the relative viability (NCI-H1944; first compound 0.8 µM) was 0.815. The relative viability (NCI-H1944; first compound 2.53 µM) was 0.824, the relative viability (NCI-H1944; first compound 8 µM) was 0.81 and the relative viability (NCI-H661; first compound 0.08 µM) was 0.759. It also gave a relative viability (NCI-H661; first compound 0.253 µM) of 0.594, a relative viability (NCI-H661; first compound 0.8 µM) of 0.592 and a relative viability (NCI-H661; first compound 2.53 µM) of 0.494. The relative viability (NCI-H661; first compound 8 µM) was 0.766, the relative viability (NCI-H838; first compound 0.08 µM) was 0.95 and the relative viability (NCI-H838; first compound 0.253 µM) was 0.98. It also gave a relative viability (NCI-H838; first compound 0.8 µM) of 0.967, a relative viability (NCI-H838; first compound 2.53 µM) of 1.03 and a relative viability (NCI-H838; first compound 8 µM) of 1.04. The relative viability (CAL-12T; first compound 0.08 µM) was 1.15, the relative viability (CAL-12T; first compound 0.253 µM) was 1.07 and the relative viability (CAL-12T; first compound 0.8 µM) was 1.02. For the same compound, the relative viability (CAL-12T; first compound 2.53 µM) was 1.32, the relative viability (CAL-12T; first compound 8 µM) was 0.923 and the relative viability (NCI-H1395; first compound 0.08 µM) was 1.31. The relative viability (NCI-H1395; first compound 0.253 µM) was 0.958, the relative viability (NCI-H1395; first compound 0.8 µM) was 1.06 and the relative viability (NCI-H1395; first compound 2.53 µM) was 1.16. The relative viability (NCI-H1395; first compound 8 µM) was 0.952, the relative viability (PC-14; first compound 0.08 µM) was 0.606 and the relative viability (PC-14; first compound 0.253 µM) was 0.911. It also gave a relative viability (PC-14; first compound 0.8 µM) of 0.928, a relative viability (PC-14; first compound 2.53 µM) of 1.05 and a relative viability (PC-14; first compound 8 µM) of 0.955. The relative viability (COR-L 105; first compound 0.253 µM) was 0.854, the relative viability (COR-L 105; first compound 0.8 µM) was 0.872 and the relative viability (COR-L 105; first compound 2.53 µM) was 0.802. It also gave a relative viability (COR-L 105; first compound 8 µM) of 0.608.

Source: the supplement of paper PMC10307832
